# In ChEMBL document CHEMBL3046093, “Effect of doses of fungicides and plant resistance activators on the control of Rhizoctonia foliar blight of soybean, and on Rhizoctonia solani AG1-IA in vitro development” (Crop Prot, 2006):
# Calls of active or inactive are those of the source. The rule behind the calls is not given here.
# Key:
# [1] = system: Rhizoctonia solani; test: Antifungal activity against Rhizoctonia solani AG-1 IA assessed as mycelial growth at 0.1 mg/l (reference value: 40 mm); assay type: functional
# [2] = system: Rhizoctonia solani; test: Antifungal activity against Rhizoctonia solani AG-1 IA assessed as reduction of mycelial growth at 100 mg/l relative to control; assay type: functional; design: scale not given: the % may be the effect or the level left
# [3] = system: Glycine max; test: Induction of systemic acquired resistance in Glycine max (soybean) plant infected with Rhizoctonia solani AG-1 IA assessed as reduction in disease severity at 12.5 mg a.i/l applied as spray on day 10 prior to inoculation measured after 5 days relative to control; assay type: functional; design: scale not given: the % may be the effect or the level left
# [4] = system: Rhizoctonia solani; test: Antifungal activity against Rhizoctonia solani AG-1 IA assessed as mycelial growth at 1 mg/l (reference value: 40 mm); assay type: functional
# [5] = system: Glycine max; test: Induction of systemic acquired resistance in Glycine max (soybean) plant infected with Rhizoctonia solani AG-1 IA assessed as reduction in disease severity at 25 mg a.i/l applied as spray on day 5 prior to inoculation measured after 10 days relative to control; assay type: functional, organism-based
# [6] = system: Rhizoctonia solani; test: Antifungal activity against Rhizoctonia solani AG-1 IA assessed as inhibition of mycelial growth at < 10 mg/l relative to control; assay type: functional, organism-based
# [7] = system: Rhizoctonia solani; test: Antifungal activity against Rhizoctonia solani AG-1 IA assessed as reduction of mycelial growth at 10 mg/l relative to control; assay type: functional; design: scale not given: the % may be the effect or the level left
# [8] = system: Glycine max; test: Induction of systemic acquired resistance in Glycine max (soybean) plant infected with Rhizoctonia solani AG-1 IA assessed as reduction in disease severity at 12.5 mg a.i/l applied as spray on day 10 prior to inoculation measured after 10 days relative to control; assay type: functional; design: scale not given: the % may be the effect or the level left
# [9] = system: Rhizoctonia solani; test: Fungicidal activity against Rhizoctonia solani AG-1 IA assessed as mycelial radial growth at 100 mg/l (reference value: 40 mm); assay type: functional
# [10] = system: Rhizoctonia solani; test: Curative effect against Rhizoctonia solani AG-1 IA infected soybean plant at 50 g a.i/ha applied as spray at V5 to V6 growth stage post inoculation measured after 5 to 10 days under greenhouse condition relative to control; assay type: functional, organism-based
# [11] = system: Rhizoctonia solani; test: Protective effect against Rhizoctonia solani AG-1 IA infected soybean plant at 50 g a.i/ha applied as spray at V5 to V6 growth stage prior to inoculation measured after 5 to 10 days under greenhouse condition relative to control; assay type: functional, organism-based
# [12] = system: Rhizoctonia solani; test: Fungicidal activity against Rhizoctonia solani AG-1 IA assessed as mycelial radial growth at 0.1 mg/l (reference value: 40 mm); assay type: functional
# [13] = system: Rhizoctonia solani; test: Fungicidal activity against Rhizoctonia solani AG-1 IA assessed as inhibition of mycelial radial growth; assay type: functional, organism-based
# [14] = system: Rhizoctonia solani; test: Fungicidal activity against Rhizoctonia solani AG-1 IA assessed as mycelial radial growth at 1 mg/l (reference value: 40 mm); assay type: functional
# [15] = system: Rhizoctonia solani; test: Fungicidal activity against Rhizoctonia solani AG-1 IA assessed as mycelial radial growth at 10 mg/l (reference value: 40 mm); assay type: functional
# [16] = system: Rhizoctonia solani; test: Protective effect against Rhizoctonia solani AG-1 IA infected soybean plant at 750 g a.i/ha applied as spray at V5 to V6 growth stage prior to inoculation measured after 5 to 10 days under greenhouse condition relative to control; assay type: functional, organism-based
# [17] = system: Rhizoctonia solani; test: Curative effect against Rhizoctonia solani AG-1 IA infected soybean plant at 100 g a.i/ha applied as spray at V5 to V6 growth stage post inoculation measured after 5 to 10 days under greenhouse condition relative to control; assay type: functional, organism-based
# [18] = system: Rhizoctonia solani; test: Protective effect against Rhizoctonia solani AG-1 IA infected soybean plant at 100 g a.i/ha applied as spray at V5 to V6 growth stage prior to inoculation measured after 5 to 10 days under greenhouse condition relative to control; assay type: functional, organism-based
# [19] = system: Glycine max; test: Phytotoxicity in Glycine max (soybean) plant assessed as leaf burning at 200 g a.i/ha; assay type: organism-based; details: in vivo
# [20] = system: Glycine max; test: Phytotoxicity in Glycine max (soybean) plant assessed as dwarfing at 200 g a.i/ha; assay type: organism-based; details: in vivo
# [21] = Rhizoctonia solani, AG-1 IA, read-out: EC50
Molecule,Activity [9] [mm],Activity [12] [mm],"EC90 ([13]; Rhizoctonia solani, AG-1 IA) [mg/L]","EC50 [13, 21] [mg/L]",Activity [14] [mm],Activity [15] [mm],other results
CSC(=O)c1cccc2nnsc12 [ACIBENZOLAR-S-METHYL],–,–,–,–,–,–,Activity [1]: 40 mm; Activity [2]: 55.2%; Activity [3]: 28.5%; Activity [4]: 40 mm; Activity [5]: Active; inhibition [6]: inactive; Activity [7]: 19%; Activity [8]: 36%
CO/C=C(/C(=O)OC)c1ccccc1Oc1cc(Oc2ccccc2C#N)ncn1 [AZOXYSTROBIN],10.3,15.2,33.1,0.668,16,13.1,Activity [10]: Active; Activity [11]: Active
CCCCNC(=O)n1c(NC(=O)OC)nc2ccccc21 [BENOMYL],0,38.8,17.4,0.352,9.6,0,–
Clc1ccc(C2(Cn3cncn3)CC(Br)CO2)c(Cl)c1 (configuration not stated) [BROMUCONAZOLE],0.7,17.9,4.81,0.097,8.2,3.6,–
COC(=O)Nc1nc2ccccc2[nH]1 [CARBENDAZIM],0,39,8.41,0.17,1.5,0,–
N#Cc1c(Cl)c(Cl)c(Cl)c(C#N)c1Cl [CHLOROTHALONIL],4.7,30,49.4,0.998,19.3,7.6,–
CC1COC(Cn2cncn2)(c2ccc(Oc3ccc(Cl)cc3)cc2Cl)O1 (configuration not stated) [DIFENOCONAZOLE],1.5,6.6,1.13,0.023,5,2.7,–
O=[N+]([O-])c1cc(C(F)(F)F)c(Cl)c([N+](=O)[O-])c1Nc1ncc(C(F)(F)F)cc1Cl [FLUAZINAM],3.4,9.1,2.27,0.046,5.1,4.3,Activity [16]: Active
N#Cc1c[nH]cc1-c1cccc2c1OC(F)(F)O2 [FLUDIOXONIL],0,7.1,0.161,0.003,0,0,–
CC(C)NC(=O)N1CC(=O)N(c2cc(Cl)cc(Cl)c2)C1=O [IPRODIONE],0,39,11.8,0.237,5.5,0,–
CO/N=C(/C(=O)OC)c1ccccc1COc1ccccc1C [KRESOXIM-METHYL],22,26,490,9.9,26.9,25.1,–
CC12CC1(C)C(=O)N(c1cc(Cl)cc(Cl)c1)C2=O (configuration not stated) [PROCYMIDONE],0.6,37.2,–,–,17.6,1.2,–
COC(=O)N(OC)c1ccccc1COc1ccn(-c2ccc(Cl)cc2)n1 [PYRACLOSTROBIN],0,17.8,4.67,0.094,8.1,5.4,Activity [17]: Active; Activity [18]: Active
O=C(O)c1ccccc1O [SALICYLIC ACID],–,–,–,–,–,–,Activity [1]: 40 mm; Activity [4]: 40 mm; inhibition [6]: inactive
CC(C)(C)C(O)(CCc1ccc(Cl)cc1)Cn1cncn1 (configuration not stated) [TEBUCONAZOLE],0,13.5,2.42,0.049,7.6,3.3,Activity [19]: Toxic; Activity [20]: Toxic
c1ccc2[nH]c(-c3cscn3)nc2c1 [THIABENDAZOLE],0,36.1,10.9,0.22,7.3,0,–
COC(=O)NC(=S)Nc1ccccc1NC(=S)NC(=O)OC [THIOPHANATE METHYL],0.4,39.6,537,10.8,36.7,20.8,–
TRIPHENYLSTANNANOL [listing 1 of 2 here],–,–,–,–,–,–,EC50 [13]: 0.112 mg/L
TRIPHENYLSTANNANOL [listing 2 of 2 here],1,14.1,–,–,10.6,6.4,EC90 [13]: 5.55 mg/L
